Consider 36 molecules from patent US5795885A, “Method of inhibiting profileration of cells by administering an aminosterol compound” (priority 1995, dated 1998).

One assay relates to P. aerug. Kind of assay: antibiotic activity (MIC). The assay is classed as cell-based.
Assay [1] concerns stage 59-60 Xenopus tadpoles. Conditions: for tadpole response similar to FX 3 / tadpole response similar to compound 1436 / tadpole response similar to compound 1437 / tadpole response similar to Fraction 1: tadpole assay.
In assay [2] the test system is chick embryo vitelline capillaries. Kind of assay: chick embryo vitelline capillary regression assay. Particulars: for vitelline capillary regression: 60 minutes. On the set-up: key to vitelline capillary regression: +: Vascular reactivity; 0: No vascular reactivity; +/-: Equivocal reactivity. The assay is classed as in vivo. The procedure:
Using the chick embryo vitelline capillaries assay, compounds were tested for their ability to induce capillary regression. Each compound was applied in 0.1 ml of 15% Ficol 400 and PBS onto the embryo, and vascular regression was assessed after 60 minutes.
The 3-day chick embryo consists of an embryonic disc from which numerous vessels emerge and return, forming a "figure 8"-shaped structure--the embryo in the center with vascular loops extending outward over both poles. […] Following a lag period of around 15 minutes, the constriction of continuity between capillary and secondary vessels, generally on the "venous" side, was observed. Continued pulsatile blood flow progressed, resulting in a "swelling" of the blind tube, followed by a pinching off of the remaining connection and formation of an enclosed vascular sac resembling a "blood island." This process progressed until only the largest vessels remained intact.

Structures are written as SMILES. Converted amounts (≈) assume the structure as drawn.

Molecule `CC(C)CCC[C@@H](C)[C@H]1CC[C@H]2[C@@H]3CC[C@H]4C[C@H](NCCCCN)CC[C@]4(C)[C@H]3CC[C@]12C` yielded an MIC against P. aerug above 256 µg/mL.

Turning to `CC(C)CCC[C@@H](C)[C@H]1CC[C@H]2[C@@H]3CC[C@H]4C[C@@H](NCCCCN)CC[C@]4(C)[C@H]3CC[C@]12C`, in the assay with P. aerug, the MIC was above 256 µg/mL. On the same count and under the same terms, as for `CC(COS(=O)(=O)O)C(=O)CC[C@@H](C)[C@H]1CC[C@H]2[C@@H]3[C@H](O)C[C@H]4C[C@@H](NCCCNCCCCN)CC[C@]4(C)[C@H]3CC[C@]12C` (stereo partly shown), the figure is 128 µg/mL (≈ 199 µM). Still for that read-out and setting: as for `CC(C)CCCC(C)[C@H]1CCC2C3C(CC[C@@]21C)[C@@]1(C)CC[C@H](N)C[C@@H]1C[C@H]3O` (stereo partly shown), the figure is above 256 µg/mL; as for `CC(C)CCCC(C)[C@H]1CCC2C3C(CC[C@@]21C)[C@@]1(C)CC[C@@H](NCCCNCCCCN)C[C@@H]1C[C@H]3O` (stereo partly shown), 64 µg/mL (≈ 120 µM). Still for that read-out and setting: the figure for `CC(C)CCCC(C)[C@H]1CCC2C3C(CC[C@@]21C)[C@@]1(C)CC[C@H](NCCCNCCCCN)C[C@@H]1C[C@H]3O` (stereo partly shown) is 64 µg/mL (≈ 120 µM). Consider `COC(=O)CCC(C)[C@H]1CCC2C3C(CC[C@@]21C)[C@@]1(C)CC[C@H](NCCN)C[C@H]1C[C@H]3O` (stereo partly shown), for which, in the assay with P. aerug, the lowest concentration to inhibit growth (MIC) was 128 µg/mL (≈ 285 µM).

Take `COC(=O)CCC(C)[C@H]1CCC2C3C(CC[C@@]21C)[C@@]1(C)CC[C@H](NCCCNCCCCNCCCN)C[C@H]1C[C@H]3O` (stereo partly shown): the MIC in the assay with P. aerug amounted to 64 µg/mL (≈ 108 µM).

With `CC(CCC(=O)O)[C@H]1CCC2C3C(CC[C@@]21C)[C@@]1(C)CC[C@@H](NCCCNCCCCNCCCN)C[C@H]1C[C@H]3O` (stereo partly shown), the lowest concentration to inhibit growth in the assay with P. aerug (MIC) was 8 µg/mL (≈ 13.9 µM). Still for that read-out and setting: as for `CC(CCC(=O)O)[C@H]1CCC2C3C(CC[C@@]21C)[C@@]1(C)CC[C@@H](NCCN)C[C@H]1C[C@H]3O` (stereo partly shown), the figure is 64 µg/mL (≈ 147 µM); as for `CC(CCC(=O)O)[C@H]1CCC2C3C(CC[C@@]21C)[C@@]1(C)CC[C@H](NCCN)C[C@H]1C[C@H]3O` (stereo partly shown), 256 µg/mL (≈ 589 µM).

For the molecule `CC(C)C(CCC(C)C1CCC2C3C(O)CC4CC(NCCCNCCCCN)CCC4(C)C3CCC12C)OS(=O)(=O)O` (stereo not shown), in assay [1] (10 μg/mL), the “Tadpole: GI (gastrointestinal)” value is given as “-”, the “Tadpole: M (melanocytes)” value is given as “-”, the “Tadpole: Mus (muscle)” value was “-” and the “Tadpole: V (vascular)” value is “+”. Take `CC(C)C(CCC(C)C1CCC2C3C(O)CC4CC(NCCCNCCCCNCCCN)CCC4(C)C3CCC12C)OS(=O)(=O)O` (stereo not shown): in assay [1] (10 μg/mL), the “Tadpole: E (epithelial)” value is given as “±”, the “Tadpole: M (melanocytes)” value is recorded as “+”, the “Tadpole: Mus (muscle)” value is reported as “-” and the “Tadpole: V (vascular)” value was “+”. In the case of `CC(C)CCC[C@@H](C)[C@H]1CC[C@H]2[C@@H]3CC[C@H]4C[C@@H](NCCCNCCCCN)CC[C@]4(C)[C@H]3CC[C@]12C` [Compound 303], the vitelline capillary regression in assay [2] (1 μg applied) is on record as 0. On the same count and under the same terms, as for `C[C@H](CCC(=O)O)[C@H]1CC[C@H]2[C@@H]3CC[C@H]4C[C@H](NCCCNCCCCN)CC[C@]4(C)[C@H]3CC[C@]12C` [Compound 318], the figure is 0. As for `CC(C)CCC[C@@H](C)[C@H]1CC[C@H]2[C@@H]3[C@H](O)C[C@H]4C[C@H](NCCCNCCCCN)CC[C@]4(C)[C@H]3CC[C@]12C` [Compound 370], in assay [1], the “tadpole response similar to FX 3” value was “exhibiting pharmacologic activity similar to that seen for FX 3”. As to `CC(C)CCC[C@@H](C)[C@H]1CC[C@H]2[C@@H]3[C@H](O)C[C@H]4C[C@@H](NCCCNCCCCN)CC[C@]4(C)[C@H]3CC[C@]12C` [Compound 371], in assay [1], the “tadpole response similar to compound 1436” value is recorded as “produce effects like those produced by compound 1436”. The vitelline capillary regression in assay [2] (0.001 μg applied) was 0; in assay [2] (0.01 μg applied) it was 0; in assay [2] (0.1 μg applied), 0; in assay [2] (1 μg applied), “+/-”; in assay [2] (10 μg applied), “+”.

`C[C@H](CCC(=O)O)[C@H]1CC[C@H]2[C@@H]3[C@H](O)C[C@H]4C[C@@H](NCCCNCCCCN)CC[C@]4(C)[C@H]3CC[C@]12C` [Compound 381]: the vitelline capillary regression in assay [2] (1 μg applied) was 0. With `C[C@H](CCC(=O)O)[C@H]1CC[C@H]2[C@@H]3[C@H](O)C[C@H]4C[C@H](NCCCNCCCCN)CC[C@]4(C)[C@H]3CC[C@]12C` [Compound 382], the vitelline capillary regression in assay [2] (0.001 μg applied) is listed as 0; in assay [2] (0.01 μg applied) it was 0; in assay [2] (0.1 μg applied), 0; in assay [2] (1 μg applied), “+”; in assay [2] (10 μg applied), “+”. In the case of `COC(=O)CC[C@@H](C)[C@H]1CC[C@H]2[C@@H]3[C@H](O)C[C@H]4C[C@@H](NCCCNCCCCNCCCN)CC[C@]4(C)[C@H]3CC[C@]12C` [Compound 396], in assay [2] (1 μg applied), the vitelline capillary regression result is on record as “+”.

As to `COC(=O)CC[C@@H](C)[C@H]1CC[C@H]2[C@@H]3[C@H](O)C[C@@H]4C[C@@H](NCCN)CC[C@]4(C)[C@H]3CC[C@]12C` [Compound 409], the “tadpole response similar to compound 1437” value in assay [1] is recorded as “functionally similar to compound 1437”. Further, the vitelline capillary regression in assay [2] (1 μg applied) amounted to 0. Consider `COC(=O)CC[C@@H](C)[C@H]1CC[C@H]2[C@@H]3[C@H](O)C[C@@H]4C[C@H](NCCN)CC[C@]4(C)[C@H]3CC[C@]12C` [Compound 410], for which the “tadpole response similar to compound 1437” value in assay [1] is listed as “functionally similar to compound 1437”. The vitelline capillary regression in assay [2] (0.001 μg applied) is 0; in assay [2] (0.01 μg applied), “+/-”; in assay [2] (0.1 μg applied), “+/-”; in assay [2] (1 μg applied) it was “+”. In the case of `C[C@H](CCC(=O)O)[C@H]1CC[C@H]2[C@@H]3[C@H](O)C[C@@H]4C[C@H](NCCCNCCCCNCCCN)CC[C@]4(C)[C@H]3CC[C@]12C` [Compound 412], in assay [1], the “tadpole response similar to FX 3” value is given as “exhibiting pharmacologic activity similar to that seen for FX 3”. Moreover, the vitelline capillary regression in assay [2] (0.001 μg applied) was 0; in assay [2] (0.01 μg applied), 0; in assay [2] (0.1 μg applied), 0; in assay [2] (1 μg applied), “+”. `C[C@H](CCC(=O)O)[C@H]1CC[C@H]2[C@@H]3[C@H](O)C[C@@H]4C[C@@H](NCCCNCCCCNCCCN)CC[C@]4(C)[C@H]3CC[C@]12C` [Compound 413]: the “tadpole response similar to compound 1436” value in assay [1] is recorded as “produce effects like those produced by compound 1436”. The vitelline capillary regression in assay [2] (1 μg applied) amounted to 0. For `C[C@H](CCC(=O)O)[C@H]1CC[C@H]2[C@@H]3[C@H](O)C[C@@H]4C[C@H](NCCN)CC[C@]4(C)[C@H]3CC[C@]12C` [Compound 414], in assay [1], the “tadpole response similar to Fraction 1” value is listed as “pharmacologic activity similar to Fraction 1”. Further, in assay [2] (1 μg applied), the vitelline capillary regression worked out at 0. As for `C[C@H](CCC(=O)O)[C@H]1CC[C@H]2[C@@H]3[C@H](O)C[C@@H]4C[C@@H](NCCN)CC[C@]4(C)[C@H]3CC[C@]12C` [Compound 415], the vitelline capillary regression in assay [2] (0.001 μg applied) was 0; in assay [2] (0.01 μg applied) it was “+”; in assay [2] (0.1 μg applied) it was “+”; in assay [2] (1 μg applied) it was “+”. Besides, in assay [2] (in vivo), the “activity in vitelline capillary regression assay (in words)” value is given as “especially active”. Regarding `COC(=O)CC[C@@H](C)[C@H]1CC[C@H]2[C@@H]3CC[C@@H]4C[C@H](NCCN)CC[C@]4(C)[C@H]3C[C@H](O)[C@]12C` [Compound 416], the “tadpole response similar to compound 1437” value in assay [1] is recorded as “functionally similar to compound 1437”. On to `COC(=O)CC[C@@H](C)[C@H]1CC[C@H]2[C@@H]3C[C@@H](O)[C@H]4C[C@H](NCCN)CC[C@]4(C)[C@H]3CC[C@]12C` [Compound 431], for which, in assay [1], the “tadpole response similar to compound 1437” value was “functionally similar to compound 1437”.

For `COC(=O)CC[C@@H](C)[C@H]1CC[C@H]2[C@@H]3C[C@@H](O)[C@H]4C[C@@H](NCCN)CC[C@]4(C)[C@H]3CC[C@]12C` [Compound 432], the “tadpole response similar to compound 1437” value in assay [1] is “functionally similar to compound 1437”.

In the case of `C[C@H](CCC(=O)O)[C@H]1CC[C@H]2[C@@H]3C[C@@H](O)[C@H]4C[C@@H](NCCN)CC[C@]4(C)[C@H]3CC[C@]12C` [Compound 433], the “tadpole response similar to compound 1437” value in assay [1] is on record as “functionally similar to compound 1437”. `COC(=O)CC[C@@H](C)[C@H]1CC[C@H]2[C@@H]3CC[C@H]4C[C@H](NCCCNCCCCNCCCN)CC[C@]4(C)[C@H]3CC[C@]12C` [Compound 458]: in assay [1], the “tadpole response similar to FX 3” value was “exhibiting pharmacologic activity similar to that seen for FX 3”.

As to `COC(=O)CC[C@@H](C)[C@H]1CC[C@H]2[C@@H]3CC[C@H]4C[C@@H](NCCCNCCCCNCCCN)CC[C@]4(C)[C@H]3CC[C@]12C` [Compound 459], the “tadpole response similar to FX 3” value in assay [1] is reported as “exhibiting pharmacologic activity similar to that seen for FX 3”.

Take `COC(=O)CC[C@@H](C)[C@H]1CC[C@H]2[C@@H]3C[C@@H](O)[C@H]4C[C@H](NCCCNCCCCNCCCN)CC[C@]4(C)[C@H]3CC[C@]12C` [Compound 465]: the “tadpole response similar to FX 3” value in assay [1] is recorded as “exhibiting pharmacologic activity similar to that seen for FX 3”. The same measure, in the same setting: as for `COC(=O)CC[C@@H](C)[C@H]1CC[C@H]2[C@@H]3C[C@@H](O)[C@H]4C[C@@H](NCCCNCCCCNCCCN)CC[C@]4(C)[C@H]3CC[C@]12C` [Compound 466], the entry is “exhibiting pharmacologic activity similar to that seen for FX 3”. `CC(C)CCC[C@@H](C)[C@H]1CC[C@H]2[C@@H]3[C@H](O)C[C@H]4C[C@H](N)CC[C@]4(C)[C@H]3CC[C@]12C` [Compound 1363]: the “tadpole response similar to Fraction 1” value in assay [1] was “pharmacologic activity similar to Fraction 1”. `CC(C)CCC[C@@H](C)[C@H]1CC[C@H]2[C@@H]3[C@H](O)C[C@H]4C[C@@H](N)CC[C@]4(C)[C@H]3CC[C@]12C` [Compound 1364]: the vitelline capillary regression is recorded as 0 in assay [2] (0.001 μg applied); 0 in assay [2] (0.01 μg applied); 0 in assay [2] (0.1 μg applied); “+” in assay [2] (1 μg applied); “+” in assay [2] (10 μg applied).

As a reminder, the MIC is the lowest concentration that inhibits growth of the organism.
